Patent publication US7517858B1, “Prodrugs of pharmaceuticals with improved bioavailability” (The Regents of the University of California, priority 1995, dated 2009)
“Also recorded” adds a separate entry of the source.

Key:
[1] = test system: Rauscher leukemia virus complex (RLV); assay: Treatment of Rauscher leukemia virus-infected mice (spleen weight); format: in vivo; conditions: for effective doses (ED50): RLV-infected BALB/C mice, 21 days oral, prodrug by gavage once a day, AZT in drinking water, spleen weight day 23
From the text: 1-O-Octadecyl-sn-glycero-3-phospho-AZT was compared to free AZT in treating mice infected with Rauscher murine leukemia virus (RLV). RLV is a murine retrovirus, and RLV-infected mice are useful as a model system for evaluating therapeutic effectiveness of candidate anti-AIDS drugs against retrovirus induced disease in vivo. […] Effective antiviral agents inhibit the splenomegaly, and a reduction in organ weight correlates with the elimination of virus (Ruprecht, R., et al., Nature 323:467-469 (1986)). […] The closest practical approach to optimum administration is the intake of AZT in drinking water.
Female BALB/C mice were infected with 1×10^4 plaque-forming units (PFU) of Rauscher leukemia virus complex (RLV) on day 0. Control animals were injected with saline. Beginning on day 2, groups of the infected mice as indicated in FIG. 1 were treated with AZT at doses from about 11.0 mg/kg/day to 15.0 mg/kg/day for 21 days either by offering AZT in drinking water or by gavaging with 1-O-octadecyl-sn-glycero-3-P-AZT once a day. On day 23 post-inoculation, the mice in both treatment protocols were sacrificed, and the spleen weights of the animals were determined. The mean spleen weights, indicating relative level of virus infection, for each dose level in the two protocols, are represented in the bar graphs of FIG. 1.

[2] = Tissue distribution 24 h after oral administration of 14C-PFA lipid prodrugs to mice; format: in vivo; conditions: oral gavage 20 mg/kg in liposomes, 14C radioactivity (FIG. 2)
Method: 1-O-Octadecyl-sn-glycero-3-PFA[^14C] and 1-O-octadecyl-2-O-methyl-sn-glycero-3-PFA[^14C] (30 microcuries/micromole) were dried with dioleoylphosphatidylcholine/cholesterol/drug in a molar ratio of 60/30/10 in a nitrogen stream, lyophilized overnight and isotonic sorbitol was added. After vortexing and warming, the vessel was sonicated at maximum output in a Heat Systems cup and horn sonicator for one hour. The resulting liposome preparation was filtered through a 0.2 micron filter and administered to mice by oral gavage in a dose of 20 mg/kg of the respective PFA lipid prodrugs. After 24 hours the animals were sacrificed and tissues removed, blotted dry, weighed and homogenized. Aliquots were counted and the amount of radioactivity determined. The results are expressed as nanomoles of lipid prodrug PFA[^14C] per gm tissue.

[3] = test system: human cytomegalovirus (HCMV); assay: Human cytomegalovirus (HCMV) antiviral susceptibility assay (HCMV DNA hybridization in MRC-5 cells); format: cell-based; conditions: for IC50: HCMV-infected MRC-5 human lung fibroblasts, HCMV DNA after 5 days, mean ± SD (n); for antiviral activity compared in words: comparison with PFA / B-PFA
Method: Subconfluent MRC-5 cells in 24-well culture dishes were pretreated for 24 hours with various concentrations of drug in MEM medium containing 2% FBS and antibiotics. The media was removed and virus added at a dilution that will result in a 3-4+ cytopathic effect (CPE) in the no-drug wells in five days. This was absorbed for 1 hour at 37° C., aspirated and replaced with the drug dilutions. After five days of incubation HCMV DNA was quantified in triplicate by nucleic acid hybridization using a CMV AntiviraL Susceptibility Test Kit from Diagnostic Hybrids, Inc. (Athens, Ohio). The media was removed and cells lysed according to the manufacturer's instructions.
After absorption of the lysate, the Hybriwix™ filters were hybridized overnight at 60° C. The Hybriwix™ were washed for 30 minutes at 73° C. and counted in a gamma counter. The results are expressed as HCMV DNA as a percentage of the untreated HCMV-infected control cells.

[4] = test system: human immunodeficiency virus-1; assay: Plaque reduction assay for HIV-1 replication in HT4-6C cells; format: cell-based; conditions: comparison with PFA / B-PFA / BB-PFA
Method: HT4-6C cells and plaque reduction assay, CD4-expressing HeLa cells, HT4-6C cells (Chesebro, B. and K. Wehrly (1988) J. Virol. 62:3779-3788), were obtained from Bruce Chesebro, Hamilton, Mont. The effect of antiviral compounds on HIV replication was measured by a plaque reduction assay. Briefly, monolayers of HT4-6C cells were infected with 100 to 300 PFU of virus per well in 24-well microdilution plates. Various concentrations of drug were added to the culture medium, Dulbecco's Modified Eagle Medium containing 5% fetal bovine serum and antibiotics, as noted above. After 3 days at 37° C., the monolayers were fixed with 10% formaldehyde solution in phosphate-buffered saline and stained with 0.25% crystal violet to visualize virus plaques (Larder, B. et al. (1989) Science 243:1731-1734). Antiviral activity was assessed as the percentage of control Plaques measured in drug-treated samples.

HSV-1 virus = assay: HSV antiviral susceptibility assay (HSV DNA hybridization in MRC-5 cells); format: cell-based, human herpes simplex virus 1; conditions: comparison with PFA / B-PFA
Method: Subconfluent MRC-5 cells in 24-well culture dishes were inoculated by removing the media and adding HSV-1 virus at a dilution that will result in a 3-4+CPE in the no-drug well in 20-24 hours. This was absorbed for 1 hour at 37° C., aspirated and replaced with various concentrations of drugs in MEM medium containing 2% FBS and antibiotics. After approximately 24 hours of incubation, HSV DNA was quantified in triplicate by nucleic acid hybridization using a HSV Antiviral Susceptibility Test Kit from Diagnostic Hybrids, Inc. (Athens, Ohio). The media was removed and cells lysed according to the manufacturer's instructions. After absorption of the lysate, the Hybriwix™ filters were hybridized overnight at 60° C. The Hybriwix™ were washed for 30 minutes at 73° C. and counted in a gamma counter. The results are expressed as a percentage of the untreated HSV-infected control cells.

Row | SMILES | effective doses (ED50) [1] | tissue levels of drug [2] | IC50 [3] [µM] | antiviral activity compared in words ([3]; HCMV) | other results
1 | CCCCCCCCCCCCCCCCCCOC[C@@H](O)COP(=O)(O)OC[C@H]1O[C@@H](n2cc(C)c(=O)[nH]c2=O)C[C@@H]1N=[N+]=[N-] [1-O-octadecyl-sn-glycero-3-P-AZT, 1-O-Octadecyl-sn-glycero-3-phospho-3′-azido-3′-deoxythymidine] | comparable |  |  |  | inhibition of splenomegaly, effectiveness ([1]; RLV-infected mice, once a day gavage versus free AZT in drinking water (FIG. 1)): as effective, in comparable doses, as virtually continuous free AZT administration
2 | Cc1cn([C@H]2C[C@H](N=[N+]=[N-])[C@@H](CO)O2)c(=O)[nH]c1=O [AZT, 3′-azido-3′-deoxythymidine, reference compound] | comparable |  |  |  | 
3 | CCCCCCCCCCCCCCCCCCOC[C@@H](O)COP(=O)(O)C(=O)O [B-PFA, 1-O-octadecyl-sn-glycero-3-phosphonoformate] |  | lower levels of drug in most tissues studied including liver, spleen, jejunum and ileum |  |  | 
4 | CCCCCCCCCCCCCCCCCCOC[C@H](COP(=O)(O)C(=O)O)OCc1ccccc1 [BB-PFA, 1-O-octadecyl-2-O-benzyl-sn-glycero-3-phosphonoformate] |  |  | 0.54 ± 0.65 | equivalent in antiviral activity to B-PFA | 
5 | CCCCCCCCCCCCCCCCCCOC[C@H](COP(=O)(O)C(=O)O)OC [MB-PFA, 1-O-octadecyl-2-O-methyl-sn-glycero-3-phosphonoformate] |  | higher tissue levels of drug were observed in liver, spleen, lung, brain, kidney and lymph node |  | equivalent in antiviral activity to B-PFA | antiviral activity compared in words [4]: significantly more active than B-PFA and BB-PFA; also recorded: more active than B-PFA to a statistically significant degree; antiviral activity compared in words (HSV-1 virus): more active than B-PFA; drug levels in the small intestine [2]: lower in the small intestine
6 | CCCCCCCCCCCCCCCCCCOCC(COP(=O)(O)C(=O)O)(OC)OC [ODDMOP-PFA, 1-O-octadecyl-2,2-dimethoxypropane-3-phosphonoformate] |  |  | 0.22 ± 0.14 | substantially more active | FOLD INCREASE IN ACTIVITY ([3]; versus PFA, HCMV): 209 fold
